Laboratory results taken from patent US12138303B2, “Staphylococcus pseudintermedius virulence factor compositions” (UNIVERSITY OF TENNESSEE RESEARCH FOUNDATION, priority 2017, dated 2024).

Experiments:
canine blood PMNs [1] = assay: Phagocytosis of pHrodo-labeled S. pseudintermedius 08-1661 in dog blood (flow cytometry); format: cell-based; conditions: 37° C., adenosine 15 μM, ADP analogue 500 μM, A2A receptor antagonist
Procedure: (§1) Bacteria for the phagocytosis assay were labeled using a pHrodo™ phagocytosis particle labeling kit (Life technologies, P35369) (10). Briefly, overnight cultures of S. pseudintermedius 06-3228 and 08-1661 were diluted 1:100 into fresh TSB and grown for 3 hours at 37° C. Bacteria were centrifuged, washed twice, and diluted to 20 mg/mL wet weight in 0.1 M sodium bicarbonate, pH 8.5, and pHrodo™ dye was dissolved in DMSO at 10 mM. The bacteria were suspended at a final dye concentration of 0.5 mM. The inhibitory effect of SpAdsA on canine neutrophils was evaluated in blood samples by exposing the EDTA-whole blood samples to pHrodo™ dye-labeled S. pseudintermedius 06-3228 and 08-1661 for 30 and 60 minutes at 37° C. The RBCs were lysed using Red Blood Cell Lysing Buffer Hybri-Max™ (Sigma-Aldrich, Cat NO. R7757) followed by centrifugation and washing. The final cell pellet, containing leukocytes, was suspended in wash buffer and analyzed using a flow cytometer equipped with a 488-nm argon ion laser (Attune acoustic focusing cytometry).

[2] = tested on: S. pseudintermedius 08-1661; assay: Bacterial survival in canine blood; format: cell-based, Staphylococcus pseudintermedius; conditions: adenosine 15 μM; 5′-(α, β-methylene) diphosphate 500 μM; ZM241385; 1, 1.5, 2 hours; versus bacteria alone
Procedure: (§2) Overnight cultures of S. pseudintermedius 06-3228 and 08-1661 were diluted 1:100 into fresh TSB and grown for 3 hours at 37° C. Staphylococci were centrifuged 9000×g, washed twice, and diluted in PBS to yield an O.D 600 of 0.5. Then 100 μl of 4×10^6 CFU per ml of bacteria were mixed with 500 μl of fresh canine blood, collected in EDTA. The samples were incubated at 37° C. with 100 rpm shaking and harvested at 60, 90 and 120 minutes. They were incubated on ice for 30 minutes in 1 ml of Red Blood Cell Lysing Buffer Hybri-Max™ (Sigma-Aldrich, Cat NO. R7757), then bacteria were pelleted at 9,000×g at 4° C. and plated on tryptic soy agar (TSA) for enumeration of viable bacteria.

[3] = tested on: S. pseudintermedius 06-3228; assay: Bacterial survival in canine blood; format: cell-based, Staphylococcus pseudintermedius; conditions: adenosine 15 μM; 5′-(α, β-methylene) diphosphate 500 μM; ZM241385; 1, 1.5, 2 hours; versus bacteria alone
Procedure: as §2

canine blood PMNs [4] = assay: Phagocytosis of pHrodo-labeled S. pseudintermedius 06-3228 in dog blood (flow cytometry); format: cell-based; conditions: 37° C., adenosine 15 μM, ADP analogue 500 μM, ZM241385 1 μM
Procedure: as §1

canine PMNs [5] = assay: Binding of biotin labelled wild type and attenuated LukS and LukF to canine PMNs; format: cell-based, dog; conditions: biotin labelled proteins, 30 minutes
Procedure: Purified recombinant S. pseudintermedius wild type and attenuated LukS and LukF at 500 μg/ml in PBS (pH 7.2) were incubated with 50 μl of 10 mM EZ-Link Sulfo-NHS-LC-Biotin reagent (equal to 20-fold molar excess of biotin) (Thermo Scientific, Cat No. 21327) for 30 min at room temperature. Excess biotin was removed using an Amicon Ultra-0.5 Centrifugal Filter Unit with a 30 kDa molecular weight cut-off (Milipore sigma, Cat No. UFC5030). The biotin-labeled proteins were stored at −20° C. until further use.
To test the binding of wild type and attenuated LukS and LukF to canine PMNs, biotin labelled recombinant proteins were incubated with PMNs from a clinical healthy dog for 30 minutes at room temperature, the cells were washed, then PMNs were incubated with 1:500 dilution of avidin-FITC conjugate (Sigma-Aldrich, A2050) at room temperature for 30 minutes in the dark. Unbound conjugate was removed by washing and the amount of binding was determined using a flow cytometer (Attune acoustic focusing cytometer) by gating on PMNs based on their side and forward scatter properties.

canine PBMCs = assay: PBMCs permeability assay (Sytox green); format: cell-based, dog; conditions: 100 μg, 30 min, relative to SpEX
Procedure: (§3) PMNs and PBMCs were separated as previously described. PMNs and PBMCs were incubated with recombinant proteins (SpEX and SpEX-M) at concentration of 100 μg in a volume of 500 μl in RPMI medium supplemented with 10% fetal bovine serum in a 5% CO2 incubator for 30 min. The supernatant of S. pseudintermedius 06-3228 was harvested at log phase to test the toxic effect of secreted SpEX. PMNs and PBMCs were stained with 1 Sytox green (Life Technologies, Inc. Cat No. 1776406) for 30 min, washed twice with PBS (pH 7.2) and analyzed using a flow cytometer (Attune acoustic focusing cytometer) by gating on PMNs and PBMCs based on their side and forward scatter properties.
(§4) To determine the protective effect of canine anti-SpEX-M on PMNs and PBMCs, recombinant S. pseudintermedius SpEX at concentration of 100 μg/ml in PBS (pH 7.2) was incubated for 30 minutes at 37° C. with serum from SpEX-M injected dogs. The experiment was run in duplicate and a p-value of <0.05 was considered significant.
(§5) For flow cytometry analysis the cut-off for cell death was established using leukocytes incubated without SpEX. Mean fluorescent intensity was determined from all gated cells.

canine PMNs [6] = assay: PMNs permeability assay (Sytox green); format: cell-based, dog; conditions: 100 μg, 30 min, relative to SpEX
Procedure: as §3, §4, §5

clinically normal dogs = assay: Antibody response of dogs injected with SpEX-M (ELISA); format: in vivo, dog; conditions: 20 μg subcutaneous, three weekly injections; sera days −7, 8, 15, 29; versus pre-injection sera
Procedure: Recombinant SpEX-M (SEQ ID NO:12) produced in E. coli was purified using affinity chromatography (as above) and endotoxin concentration was measured using a ToxinSensor™ Chromogenic LAL Endotoxin Assay Kit (Genscript, Cat. No. L00350). Recombinant SpEX-M at 20 μg each/0.5 cc in phosphate buffered saline (PBS) (pH 7.2) were injected in the lateral thorax by the subcutaneous route, into three clinically normal dogs. Injections were given once every 7 days for a total of three injections with a control dog receiving PBS (pH 7.2) only. Blood (6 cc) was collected from a jugular vein 4 times, on days −7, 8, 15 and 29 (relative to injections). […]
For measurement of recombinant protein antigenicity, SpEX and SpEX-M were coated separately onto ELISA plates (Corning, Cat No. 3590) at 2 μg/ml in PBS. The plates were washed with 0.05% PBS-T and incubated with two-fold serial diluted serum from dogs (injected with recombinant proteins) for 1 h at 37° C., then bound IgG was detected using HRP-conjugated goat anti-dog IgG-heavy and light chain (Bethyl Laboratories, Inc. Cat No. A40-123-1). ELISA assays plates were washed three times with PBS-T between all incubations, bound antibodies were detected using TMB substrate (Thermo Scientific, Cat No. N301), reactions were stopped with 0.18 M sulphuric acid and optical density read at 450 nm on a plate reader (Bio TEK, EL800). […]

canine B cells [7] = assay: B cell apoptosis (annexin, flow cytometry); format: cell-based, dog; conditions: 1.5 h
Procedure: (§6) A total of 100 μg of purified recombinant SpsQ or SpsQ-M was mixed with isolated peripheral blood mononuclear cells (PBMC) in 1 ml of RPMI medium supplemented with 10% fetal bovine serum and incubated for 1.5 h at 37° C. in a 5% CO2 incubator. To detect early phases of B cell apoptosis, phosphatidylserine was measured on the surface of cells using pacific blue-conjugated annexin (Thermo Scientific, USA Cat No. A35136). B cells were identified using phycoerythrin (PE) conjugated mouse anti-canine CD21 (clone: CA2.1D6) (BIO-RAD, USA Cat No. MCA1781PE) that recognizes canine CD21 (complement receptor type 2) on mature B lymphocytes. Stained B cells were analyzed using a flow cytometer (Attune acoustic focusing cytometer). B cells were also incubated with the same recombinant proteins as described above but for 3.5 h in order to detect B cell death. Cells were stained with Sytox green (Life Technologies, Inc., USA Cat No. 1776406) and PE-conjugated mouse anti-canine CD21. Gates were placed on cells positive for PE and these B cells were analyzed by flow cytometry.
(§7) For flow cytometry analysis the cut-off for apoptosis or cell death was established using leukocytes incubated without SpsQ. Mean fluorescent intensity was determined from all B cells.

[8] = tested on: chicken anti-protein A antibody; assay: ELISA antigenicity with HRP-chicken anti-protein A antibody; format: binding; conditions: coated protein
Procedure: For measurement of the antigenicity of recombinant proteins, affinity-purified SpsQ and SpsQ-M were coated on ELISA plates (Corning, USA Cat No. 3590) at […] in PBS (pH 7.2). The plates were washed with PBS-T and incubated with HRP-chicken anti-protein A antibody (Gallus Immunotech, USA Cat No. APA) for 1 h at 37° C., then washed. For this and all subsequent ELISA assays, plates were washed three times with PBS-T between all incubations, bound antibodies were detected using TMB substrate (Thermo Scientific, USA Cat No. N301), reactions were stopped with 0.18 M sulphuric acid and optical density read at 450 nm on a plate reader (Bio TEK, USA Cat No. EL800). The experiment was repeated at least three times and a p-value of <0.05 was considered significant, which was the same for all the experiments unless mentioned otherwise.

canine B cells [9] = assay: B cell death (Sytox green, flow cytometry); format: cell-based, dog; conditions: 3.5 h incubation; ± SEM
Procedure: as §6, §7

dog IgM = assay: ELISA reactivity with dog IgM; format: binding; conditions: compared to SpsQ and SpA
Procedure: (§8) To test the reactivity of serum from a dog with chronic pyoderma, S. aureus SpA and S. pseudintermedius SpsQ and SpsQ-M were coated on ELISA plates (Corning, USA Cat No. 3590) at 2 μg/ml in PBS. They were incubated with serum at a dilution of 1:2000. Bound IgG, IgM, and IgA were detected by HRP-goat anti-dog IgG-heavy and light chain (Bethyl Laboratories, Inc., USA Cat No. A40-123-1), HRP-goat anti-dog IgM μ chain (Bethyl Laboratories, Inc., USA Cat No. A40-116-2), HRP-goat anti-dog IgA (Bethyl Laboratories, Inc., USA Cat No. A40-104P) at a dilution of 1:8000 in PBS-T. Dog whole IgG molecule (Rockland, USA Cat No. 004-0102-1000) was used for comparison to measure non-specific IgG binding.

dog IgA = assay: ELISA reactivity with dog IgA; format: binding; conditions: compared to SpsQ and SpA
Procedure: as §8

dog IgG = assay: ELISA reactivity with dog serum / dog IgG; format: binding; conditions: compared to SpsQ and SpA
Procedure: as §8

Row | Compound | phagocytosis, mean MFI (canine blood PMNs [1]; 08-1661, 30 minutes) | phagocytosis, mean MFI (canine blood PMNs [1]; 08-1661, 60 minutes) | survival of S. pseudintermedius 08-1661 in canine blood [2] | survival of S. pseudintermedius 06-3228 in canine blood [3] | phagocytosis, mean MFI (canine blood PMNs [4]; 06-3228, 30 minutes) | phagocytosis, mean MFI (canine blood PMNs [4]; 06-3228, 60 minutes) | binding to canine leukocytes (canine PMNs [5]) | also measured
1 | Nc1nc(NCCc2ccc(O)cc2)nc2nc(-c3ccco3)nn12 [ZM241385] | 1,306,729 | 2,924,203 | significantly decreased at all of time points | significantly decreased at all of time points | 241513 | no significant difference | – | –
2 | Nc1ncnc2c1ncn2[C@@H]1O[C@H](CO)[C@@H](O)[C@H]1O [adenosine] | 375,737 | 764,921 | significantly promoted | significantly promoted | 89,583 | 711,453 | – | –
3 | LukF-M: attenuated Leukotoxin F with substitutions S59D and N65A | – | – | – | – | – | – | bound to canine leukocytes without causing any significant killing | –
4 | LukS-M: attenuated Leukotoxin S with substitutions T57F, K128A and S239A | – | – | – | – | – | – | bound to canine leukocytes without causing any significant killing | –
5 | SpEX-M: attenuated SpEX with substitutions D 102A, T125P, T206P and R217A | – | – | – | – | – | – | – | killing effect on PBMCs of dogs (canine PBMCs): diminished killing effect; killing effect on PMNs (canine PMNs [6]): diminished killing effect; IgG against S. pseudintermedius SpEX-M and SpEX in sera of injected dogs (clinically normal dogs): reached the highest level on day 29
6 | SpsQ-M: attenuated non-toxigenic S. pseudintermedius protein A with Q5K, Q6K, D32A, D33A in each Ig binding domain | – | – | – | – | – | – | – | apoptotic effect on B cells (canine B cells [7]; 100 μg protein, PBMC): low apoptotic effect; mean+/−SEM fluorescent intensity (MFI) difference between SpsQ and SpsQ-M (canine B cells [7]): 2052±285.2; reactivity with chicken anti-protein A (antigenicity) [8]: strong reactivity; Sytox MFI reduction compared to that of SpsQ (canine B cells [9]): 519065±128292; binding to IgM (dog IgM): significantly lower binding; binding to IgA (dog IgA): significantly lower binding; binding to commercial dog IgG (dog IgG): significantly lower binding
